Patent US20150167050A1, “Cancer Diagnosis by Measuring Polyisoprenylated Methylated Protein Methyl Esterase Activity” (Florida Agricultural and Mechanical University, priority 2013, published 2015)

What was measured:
[1] = system: PMPMEase; settings: cited from earlier work; for concentrations that inhibit PMPMEase: concentration range given in words only
[2] = system: PMPMEase; experiment: Inhibition of PMPMEase by drugs, curcumin, fatty acids and prostaglandins; format: biochemical; settings: relative to arachidonic acid (AA)

Compound | concentrations that inhibit PMPMEase [1] | other results
CCCCC[C@H](O)/C=C/[C@H]1[C@H](O)CC(=O)[C@@H]1C/C=C\CCCC(=O)O [PGE2] |  | inhibition of PMPMEase at 1 mM ([1]; 1 mM): did not inhibit
CCCCC[C@H](O)/C=C/[C@H]1C=CC(=O)[C@@H]1C/C=C\CCCC(=O)O [Prostaglandin (PG) A2] |  | fold less potent than AA as PMPMEase inhibitor [2]: 63 fold
O=P1(N(CCCl)CCCl)NCCCO1 (stereo not drawn) [cyclophosphamide] | millimolar concentrations | 
COc1cc(/C=C/C(=O)CC(=O)/C=C/c2ccc(O)c(OC)c2)ccc1O [curcumin] | micromolar concentrations | 
CCCCC/C=C\C/C=C\C/C=C\C/C=C\CCCC(=O)O [arachidonic acid] | micromolar concentrations | 
CC/C(=C(\c1ccccc1)c1ccc(OCCN(C)C)cc1)c1ccccc1 [tamoxifen] | millimolar concentrations | 
